The values below are quoted from earlier work in US10851223B2, “Use of a cyclodextrin polycondensate or a composition comprising such a polycondensate, as a capturing agent” (BIOSTART, priority 2016, dated 2020).

The conditions of the data set: octanol/water.

Take `Clc1cc(Cl)c(-c2cc(Cl)c(Cl)cc2Cl)cc1Cl` [PCB 153]: the “Log Kow” value is 7.21.

Consider `Clc1ccc(-c2ccc(Cl)cc2Cl)cc1` [PCB 28], for which the “Log Kow” value is recorded as 5.62.

Consider `CN(C)C(=O)Nc1ccc(Cl)c(Cl)c1` [Diuron], for which the “Log Kow” value is recorded as 2.68.

`Clc1ccc(-c2cc(Cl)c(Cl)cc2Cl)cc1Cl` [PCB 118]: the “Log Kow” value is recorded as 6.84.

As to `CCCCC(CC)COC(=O)c1ccccc1C(=O)OCC(CC)CCCC` (stereo not shown) [di(2-ethylhexyl)-phthalate], the “Log Kow” value is 7.6.

Consider `Clc1cc(Cl)c(-c2ccc(Cl)c(Cl)c2Cl)cc1Cl` [PCB 138], for which the “Log Kow” value is reported as 7.25.

For `Clc1cc(Cl)c(-c2cc(Cl)c(Cl)c(Cl)c2Cl)cc1Cl` [PCB 180], the “Log Kow” value is reported as 7.7.

With `c1ccc2c(c1)c1cccc3ccc4cccc2c4c31` [benzopyrene], the “Log Kow” value is reported as 6.07.

For the molecule `Clc1ccc(Cl)c(-c2cc(Cl)c(Cl)cc2Cl)c1` [PCB 101], the “Log Kow” value was 6.8.

`Clc1ccc(Cl)c(-c2cc(Cl)ccc2Cl)c1` [PCB 52]: the “Log Kow” value is on record as 6.12.
